Key:
Vaccinia virus = assay: Antiviral activity against Vaccinia virus Copenhagen infected in African green monkey Vero cells assessed as inhibition of viral reproduction after 4 days by neural red dye-based assay; assay type: functional, organism-based, Orthopoxvirus vaccinia
[1] = Cytotoxicity against African green monkey Vero cells after 4 days by neural red dye-based assay; assay type: cell-based; details: chlorocebus sabaeus, read-out: TC50
[2] = Selectivity index, ratio of TC50 for African green monkey Vero cells to IC50 for Vaccinia virus Copenhagen; assay type: toxicity; details: read-out: Selectivity Index
[3] = Orthopoxvirus vaccinia, Copenhagen, Vero, 96 h, read-out: IC50

Structure (SMILES)	IC50 (Vaccinia virus; [3]) [µM]	CC50 at 96 h [1] [µM]	selectivity ratio [2]	IC50 (Vaccinia virus; vero)
CC1(C)[C@H]2CC[C@]1(C)[C@H](OC(=O)CCN1CCOCC1)C2	3.5			
CCCCN1C(=O)CS/C1=N\N=C1/C[C@H]2CC[C@]1(C)C2(C)C	3.2	25.2	8	
CC1(C)[C@@H]2CC[C@@]1(C)/C(=N/N=C1/NC(=S)CS1)C2	3.3	17.5	5	
C=CCN1C(=O)CS/C1=N\N=C1/C[C@H]2CC[C@]1(C)C2(C)C	14.4	164	11	
CC1(C)[C@@H]2CC[C@@]1(C)/C(=N/Nc1nc(-c3ccc([N+](=O)[O-])cc3)cs1)C2		261		Not Active
COc1ccc(-c2csc(N/N=C3\C[C@H]4CC[C@]3(C)C4(C)C)n2)cc1	3.7	93.6	26	
CC1(C)[C@@H]2CC[C@@]1(C)/C(=N/Nc1nc(-c3ccc(Cl)cc3)cs1)C2	2.7	64.1	24	
CC1(C)[C@@H]2CC[C@@]1(C)/C(=N/Nc1nc(-c3ccc(F)cc3)cs1)C2		176		Not Active
CC1CCN(CCC(=O)N[C@@H]2C[C@H]3CC[C@]2(C)C3(C)C)CC1	2.5			
CC1(C)[C@@H]2CC[C@@]1(C)/C(=N/N=C1/NC(=O)/C(=C/c3ccccc3)S1)C2	5.2	14.5	3	
CC(C)CCN1C(=O)CS/C1=N\N=C1/C[C@H]2CC[C@]1(C)C2(C)C		37.5		Not Active
CC1(C)[C@@H]2CC[C@@]1(C)/C(=N/NC(N)=S)C2	17.7	225	13	
CC1(C)[C@@H]2CC[C@@]1(C)/C(=N/N=C1/NC(=O)CS1)C2		305		Not Active
CC1(C)[C@@H]2CC[C@@]1(C)/C(=N/N=C1\SCC(=O)N1Cc1ccccc1)C2		288		Not Active
Cc1ccc(-c2csc(N/N=C3\C[C@H]4CC[C@]3(C)C4(C)C)n2)cc1	4.5	13.7	3	
CC1(C)[C@@H]2CC[C@@]1(C)/C(=N/Nc1nc(-c3ccccc3)cs1)C2	3.2	13.9		
CC1(C)[C@@H]2CC[C@@]1(C)/C(=N/Nc1nc(-c3ccc(Br)cc3)cs1)C2	2.4	77.1	32	
Cc1ccc(/C=C2\S/C(=N\N=C3/C[C@H]4CC[C@]3(C)C4(C)C)NC2=O)cc1 (stereo in doubt)	9.5	120	13	
Nc1ccn(C[C@@H](CO)OCP(=O)(O)O)c(=O)n1 [CIDOFOVIR]	40	475	12	

— ChEMBL document CHEMBL4257560, “Synthesis and antiviral activity of camphor-based 1,3-thiazolidin-4-one and thiazole derivatives as Orthopoxvirus-reproduction inhibitors” (Medchemcomm, 2018)
